Measurements as given in patent US9962384B1, “Levosimendan compound for preventing or treating tau-related diseases” (KOREA INSTITUTE OF SCIENCE AND TECHNOLOGY, priority 2017, dated 2018).

Assays:
[1] = tested on: tau-BiFC cells; assay: Cell viability by cell nucleus staining with Hoechst; assay type: cell-based; conditions: forskolin 30 μM; for cytotoxicity / cell viability (number of nuclei stained with Hoechst): 10 μM compound, 48 hours
Method: (§1) To screen a new tau aggregation inhibitor, tau-BiFC cell model making it possible to easily observe tau oligomer formation in living cells was treated an FDA-approved drug library (a total of 1018 compounds). As shown in a schematic view of FIG. 1, tau-BiFC cells were plated on a 384-well plate. On the next day, the tau-BiFC cells were treated with FDA-approved drugs (treatment concentration: 10 μM) together with the compound forskolin (treatment concentration: 30 μM) that activates tau kinase PKA to induce tau aggregation. After 46 hours, the tau aggregation inhibitory activities of the drugs were analyzed, and cell viability by the compounds was analyzed by cell nucleus staining with Hoechst. […] To further confirm the tau aggregation inhibitory activity of the selected levosimendan, tau-BiFC cells were treated with DMSO, MB or levosimendan (treatment concentration: 10 μM) together with the compound forskolin (treatment concentration: 30 μM) that activates tau kinase PKA to induce tau aggregation. At this time, methylene blue (MB) known to show tau aggregation inhibitory activity was used as a comparative compound (positive control). After 48 hours, the tau aggregation inhibitory activity of the compound was analyzed, and cell viability by the compound was analyzed by cell nucleus staining with Hoechst.
Furthermore, it could be seen that the fluorescence value of the test group (levosimendan) decreased, similar to that of the positive control group (MB).
(§2) In addition, in order to further confirm the tau aggregation inhibitory activity of the selected levosimendan compound in living cells, tau-BiFC cells were treated with the tau inducer forskolin (treatment concentration: 30 μM) together with 1, 3, 10, 30 or 100 μM of the levosimendan compound. After 48 hours, tau aggregation reactions in the cells were analyzed by analysis of tau-BiFC response, and cell viability was analyzed to determine the toxicity of the compound.

[2] = biological target: T1, tau (Homo sapiens, UniProt P10636); assay: Intracellular tau aggregation in tau-BiFC cell model (forskolin-induced); assay type: cell-based; design: fused on or other part: N-terminal and C-terminal non-fluorescent fragments of Venus fused to tau (BiFC reporter handles); conditions: forskolin 30 μM; for concentration dependence of tau-BiFC fluorescence value: 1-100 μM; for tau aggregation in tau-BiFC cells (Example 5, metabolites comparison): varying concentrations
T1 sequence (P10636 1-441 isoform P10636-8): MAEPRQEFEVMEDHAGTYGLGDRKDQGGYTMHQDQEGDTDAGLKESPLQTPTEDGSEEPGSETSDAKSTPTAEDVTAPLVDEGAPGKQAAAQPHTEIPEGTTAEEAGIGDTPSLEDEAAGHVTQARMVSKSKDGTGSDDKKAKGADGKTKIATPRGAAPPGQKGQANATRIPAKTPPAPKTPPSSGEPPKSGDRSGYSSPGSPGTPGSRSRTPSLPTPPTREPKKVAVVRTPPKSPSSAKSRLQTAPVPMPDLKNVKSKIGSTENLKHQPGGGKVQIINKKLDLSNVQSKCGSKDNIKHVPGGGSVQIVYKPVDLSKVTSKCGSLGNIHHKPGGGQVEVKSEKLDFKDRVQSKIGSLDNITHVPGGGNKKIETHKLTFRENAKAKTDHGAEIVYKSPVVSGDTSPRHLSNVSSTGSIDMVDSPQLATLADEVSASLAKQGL
Method: Furthermore, the following examples were performed based on tau-BiFC cell model. The tau-BiFC cell model is a reliable system for monitoring the interaction between tau oligomers, and is a Venus protein-based BiFC method in which the N-terminal and C-terminal non-fluorescent fragments of Venus protein are fused to tau. A further detailed definition and method for the tau-BiFC cell model are as described in Korean Patent No. 10-1546485.
as §1, §2
The levosimendan compound has two metabolite forms ([…] and activated (OR-1896)). […] Specifically, tau-BiFC cells were treated with varying concentrations of each of MB, levosimendan, OR-1855 and OR-1896 compounds together with the tau aggregation inducer forskolin (treatment concentration: 30 μM). After 48 hours, the extent of tau aggregation in the cells was analyzed.

[3] = biological target: T1, tau; assay: Tau phosphorylation by Western blot of tau-BiFC cell lysates; assay type: cell-based; design: fused on or other part: N-terminal and C-terminal non-fluorescent fragments of Venus fused to tau (BiFC reporter handles); conditions: forskolin 30 μM, 36 hours
Method: In order to confirm whether the levosimendan compound would show tau aggregation inhibitory activity by inhibiting tau phosphorylation, Tau-BiFC cells were treated with the tau aggregation inducer forskolin (treatment concentration: 30 μM) and the levosimendan compound (treatment concentration: 15 μM). After 36 hours, the tau-BiFC cell lysates were analyzed by Western blot analysis to measure tau phosphorylation.

[4] = tested on: mouse cerebral cortical neuronal cells; assay: Neuronal cell protection against TauK18P301L damage; assay type: cell-based; conditions: 10 μM, 2 hours before TauK18P301L 20 μg/mL; E18, DIV8
Source text: Whether the levosimendan compound would protect neuronal cells from neuronal cell damage was examined.

[5] = biological target: T1, tau; assay: In vitro tau aggregation with ThS (Thioflavin S); assay type: biochemical; conditions: Tau pre-Agg+100 uM DTT+0.1 mg/mL Heparin, 37° C.
Method: (§3) Thus, whether the levosimendan compound would be involved in the tau aggregation process to inhibit tau aggregation was examined. Specifically, whether the levosimendan compound would inhibit the tau aggregation process was analyzed in vitro, and whether the levosimendan compound would prevent additional aggregation of aggregated tau and dissociate the aggregation was analyzed in vitro. The tau aggregation process (Tau pre-Agg+100 uM DTT+0.1 mg/mL Heparin, incubated at 37° C.) in vitro was treated with varying concentrations of the levosimendan compound, and the degree of tau aggregation was analyzed with ThS (Thioflavin S). The ThS is a dye capable of measuring tau aggregation in vitro in real time, and is used as a fluorescence probe that detects β-sheet aggregation.

[6] = biological target: tau aggregates (Homo sapiens, UniProt P10636); assay: In vitro dissociation of tau aggregates; assay type: biochemical; conditions: Tau-Agg+100 uM DTT+0.1 mg/mL Heparin, 37° C., varying concentrations
Chain of tau aggregates (P10636 1-441 isoform P10636-8): as above
Method: as §3

[7] = tested on: tau kinase; assay: Tau kinase activity
[8] = 15 μM, vs forskolin-treated cells

CN(C)c1ccc2nc3ccc(=[N+](C)C)cc-3sc2c1 [MB, methylene blue]
cytotoxicity / cell viability (number of nuclei stained with Hoechst) [1]: decreased | cytotoxicity / cell viability (number of nuclei stained with Hoechst) ([1]; listed as methylene blue): cytotoxicity higher than that of the levosimendan compound | concentration dependence of tau-BiFC fluorescence value ([2]; 48 hours): concentration-dependent decrease in the fluorescence value | tau phosphorylation compared to forskolin-treated cells [3]: decreased compared to that in the forskolin-treated cells

C[C@@H]1CC(=O)NN=C1c1ccc(N)cc1 [OR-1855]
tau aggregation in tau-BiFC cells (Example 5, metabolites comparison) ([2]; 48 hours): did not show tau aggregation inhibitory activity

CC(=O)Nc1ccc(C2=NNC(=O)C[C@H]2C)cc1 [OR-1896]
tau aggregation in tau-BiFC cells (Example 5, metabolites comparison) ([2]; 48 hours): did not show tau aggregation inhibitory activity

C[C@@H]1CC(=O)NN=C1c1ccc(NN=C(C#N)C#N)cc1 [levosimendan]
cell viability in drug library screening ([1]; 10 μM, 46 hours): cell viability equal to that of drug-untreated normal cells | damage to neuronal cells, neuronal cell morphology and neurite length [4]: decreased compared to that in the negative control group (DMSO) and the positive control group (MB) | IC50 [5]: 4.71 µM | effect on tau aggregates in vitro [6]: had the effect of dissociating tau aggregates | changes in tau kinase activity [7]: did not affect changes in tau kinase activity | tau-BiFC fluorescence value (RFU), tau aggregation inhibitory activity ([2]; 10 μM compound, 48 hours): decreased compared to that of the negative control group (DMSO) | tau aggregation inhibitory activity in drug library screening ([2]; 10 μM, 46 hours, 384-well plate): tau aggregation inhibitory activity equal to that of methylene blue (MB) | concentration dependence of tau-BiFC fluorescence value ([2]; 48 hours): concentration-dependent decrease in the fluorescence value | IC50 ([2]; 1, 3, 10, 30 or 100 μM compound, 48 hours, read-out: IC50 of decrease in tau-BiFC fluorescence value): 2.2 µM | tau aggregation in tau-BiFC cells (Example 5, metabolites comparison) ([2]; 48 hours): decreased similar to that in the positive control group (MB) | tau phosphorylation decrease at Ser199 [3, 8]: about 34% | tau phosphorylation decrease at Ser396 [3, 8]: about 35% | tau phosphorylation compared to forskolin-treated cells [3]: decreased compared to that in the forskolin-treated cells
